Target: Recombinant human KIF18A (1-467His-tagged) protein (Homo sapiens (Human), UniProt Q8NI77)
Test: KIF18A enzyme assay (microtubule-stimulated ATPase activity, ADP-Glo)
Assay type: biochemical
Details: 30 nM KIF18A, ATP 75 μM, read-out: inhibitory activity against KIF18A IC50
Outline: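 Baculovirus-expressed human KIF18A (1-467, His-tagged; 30 nM) preincubated 15 min at room temperature with compound (22-point 2-fold series) in pH 7.5 Tris buffer containing 30 μg/mL pig microtubules and 1 μM paclitaxel.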

Recombinant human KIF18A (1-467His-tagged) protein, sequence (Q8NI77 1-467): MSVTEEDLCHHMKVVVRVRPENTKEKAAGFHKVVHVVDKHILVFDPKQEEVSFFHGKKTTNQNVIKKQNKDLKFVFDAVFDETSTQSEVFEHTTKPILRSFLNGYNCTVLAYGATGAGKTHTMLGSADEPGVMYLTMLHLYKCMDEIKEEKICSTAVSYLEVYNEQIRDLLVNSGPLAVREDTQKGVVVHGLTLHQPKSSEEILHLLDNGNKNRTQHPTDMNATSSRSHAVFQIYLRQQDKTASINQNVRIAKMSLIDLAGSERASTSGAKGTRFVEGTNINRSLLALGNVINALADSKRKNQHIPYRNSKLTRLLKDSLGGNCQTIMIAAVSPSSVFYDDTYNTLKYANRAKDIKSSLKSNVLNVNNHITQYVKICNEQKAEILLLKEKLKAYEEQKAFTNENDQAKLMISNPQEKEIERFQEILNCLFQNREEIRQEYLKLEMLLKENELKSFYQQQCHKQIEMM
Recombinant human KIF18A (1-467His-tagged) protein, sequence (P02550 whole entry partner): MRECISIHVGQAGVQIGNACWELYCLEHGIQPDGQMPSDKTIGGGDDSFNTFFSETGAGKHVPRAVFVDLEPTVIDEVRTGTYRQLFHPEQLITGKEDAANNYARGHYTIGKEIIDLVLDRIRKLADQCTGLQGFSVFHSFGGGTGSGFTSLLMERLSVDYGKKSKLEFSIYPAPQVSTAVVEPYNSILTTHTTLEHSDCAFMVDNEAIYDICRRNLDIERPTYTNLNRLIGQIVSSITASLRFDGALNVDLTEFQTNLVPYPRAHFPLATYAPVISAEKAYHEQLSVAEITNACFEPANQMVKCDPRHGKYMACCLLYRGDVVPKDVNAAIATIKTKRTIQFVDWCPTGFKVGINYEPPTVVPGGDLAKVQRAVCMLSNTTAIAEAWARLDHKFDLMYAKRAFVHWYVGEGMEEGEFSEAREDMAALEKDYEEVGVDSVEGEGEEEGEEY
Recombinant human KIF18A (1-467His-tagged) protein, sequence (P02554 whole entry partner): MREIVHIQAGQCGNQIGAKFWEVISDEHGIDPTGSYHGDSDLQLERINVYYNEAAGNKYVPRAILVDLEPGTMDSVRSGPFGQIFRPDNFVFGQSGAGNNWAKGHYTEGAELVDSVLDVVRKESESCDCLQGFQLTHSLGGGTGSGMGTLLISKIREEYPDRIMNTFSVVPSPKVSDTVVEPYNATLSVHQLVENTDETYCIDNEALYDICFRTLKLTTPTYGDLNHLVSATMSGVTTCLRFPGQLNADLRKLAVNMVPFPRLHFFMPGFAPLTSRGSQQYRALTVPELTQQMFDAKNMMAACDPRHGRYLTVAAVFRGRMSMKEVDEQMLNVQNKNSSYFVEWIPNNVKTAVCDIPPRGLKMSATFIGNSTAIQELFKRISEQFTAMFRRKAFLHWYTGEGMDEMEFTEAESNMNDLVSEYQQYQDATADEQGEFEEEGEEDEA

IC50, ≤ 100 nM:
C[C@H](CO)NS(=O)(=O)c1ccc(NC(=O)c2cc3c(c(N4CCO[C@H](C)C4)n2)N(C)CC3)c(N2CCC3(CC2)CC3)c1 [Compound 384]
C[C@@H]1CN(c2cc(NC(=O)c3ccc(NS(=O)(=O)CCO)cc3N3CCC4(CC3)CC4)cc3ccn(C)c23)CCO1 [Compound 386]
C[C@H]1CN(c2cc(NC(=O)c3ccc(NS(=O)(=O)CCO)cc3N3CCC4(CC3)CC4)cc3ccn(C)c23)CCO1 [Compound 387]
Cn1ccc2cc(NC(=O)c3ccc(NS(=O)(=O)CCO)cc3N3CCC4(CC3)CC4)cc(N3CC(F)(F)C3)c21 [Compound 388]
Cn1ccc2cc(NC(=O)c3ccc(NS(=O)(=O)CCO)cc3N3CCC4(CC3)CC4)cc(OCCC(F)(F)F)c21 [Compound 389]
Cn1ccc2cc(NC(=O)c3ccc(NS(=O)(=O)CCO)cc3N3CCC4(CC3)CC4)cc(N3CCC4(CC4)C3)c21 [Compound 390]
Cn1ccc2cc(NC(=O)c3ccc(NS(=O)(=O)CCO)cc3N3CCC4(CC3)CC4)cc(OC3CCC3)c21 [Compound 391]
Cn1ccc2cc(NC(=O)c3ccc(NS(=O)(=O)CCO)cc3N3CCC4(CC3)CC4)cc(N3CCC(C)(F)C3)c21 (centres unmarked) [Compound 392]
Cn1ccc2cc(NC(=O)c3ccc(NS(=O)(=O)CCO)cc3N3CCC4(CC3)CC4)cc(N3CCC(F)CC3)c21 [Compound 393]
Cn1ccc2cc(NC(=O)c3ccc(NS(=O)(=O)CCO)cc3N3CCC4(CC3)CC4)cc(N3CC4CC4C3)c21 (centres unmarked) [Compound 394]
Cn1ccc2cc(NC(=O)c3ccc(NS(=O)(=O)CCO)cc3N3CCC4(CC3)CC4)cc(NC(C)(C)CO)c21 [Compound 395]
Cn1ccc2cc(NC(=O)c3ccc(NS(=O)(=O)CCO)cc3N3CCC4(CC3)CC4)cc(N3CCOCC3)c21 [Compound 396]
C[C@@H](CO)S(=O)(=O)Nc1ccc(C(=O)Nc2cc(N3CCC(F)(F)CC3)c3c(ccn3C)c2)c(N2CCC3(CC2)CC3)c1 [Compound 397]
C[C@H](CO)S(=O)(=O)Nc1ccc(C(=O)Nc2cc(N3CCC(F)(F)CC3)c3c(ccn3C)c2)c(N2CCC3(CC2)CC3)c1 [Compound 398]
C[C@@H]1CN(c2cc(NC(=O)c3ccc(NS(=O)(=O)[C@@H](C)CO)cc3N3CCC4(CC3)CC4)cc3ccn(C)c23)CCO1 [Compound 399]
C[C@@H]1CN(c2cc(NC(=O)c3ccc(NS(=O)(=O)[C@H](C)CO)cc3N3CCC4(CC3)CC4)cc3ccn(C)c23)CCO1 [Compound 400]
Cn1ccc2cc(NC(=O)c3ccc(S(=O)(=O)NCCO)cc3N3CCC4(CC3)CC4)cc(N3CCC(F)(F)CC3)c21 [Compound 401]
C[C@@H]1CN(c2cc(NC(=O)c3ccc(S(=O)(=O)NCCO)cc3N3CCC4(CC3)CC4)cc3ccn(C)c23)CCO1 [Compound 402]
C[C@H]1CN(c2cc(NC(=O)c3ccc(S(=O)(=O)NCCO)cc3N3CCC4(CC3)CC4)cc3ccn(C)c23)CCO1 [Compound 403]
Cn1ccc2cc(NC(=O)c3ccc(S(=O)(=O)NCCO)cc3N3CCC4(CC3)CC4)cc(N3CC(F)(F)C3)c21 [Compound 404]
Cn1ccc2cc(NC(=O)c3ccc(S(=O)(=O)NCCO)cc3N3CCC4(CC3)CC4)cc(OCCC(F)(F)F)c21 [Compound 405]
Cn1ccc2cc(NC(=O)c3ccc(S(=O)(=O)NCCO)cc3N3CCC4(CC3)CC4)cc(N3CCC4(CC4)C3)c21 [Compound 406]
Cn1ccc2cc(NC(=O)c3ccc(S(=O)(=O)NCCO)cc3N3CCC4(CC3)CC4)cc(OC3CCC3)c21 [Compound 407]
Cn1ccc2cc(NC(=O)c3ccc(S(=O)(=O)NCCO)cc3N3CCC4(CC3)CC4)cc(N3CCC(C)(F)C3)c21 (centres unmarked) [Compound 408]
Cn1ccc2cc(NC(=O)c3ccc(S(=O)(=O)NCCO)cc3N3CCC4(CC3)CC4)cc(N3CCC(F)CC3)c21 [Compound 409]
Cn1ccc2cc(NC(=O)c3ccc(S(=O)(=O)NCCO)cc3N3CCC4(CC3)CC4)cc(N3CC4CC4C3)c21 (centres unmarked) [Compound 410]
Cn1ccc2cc(NC(=O)c3ccc(S(=O)(=O)NCCO)cc3N3CCC4(CC3)CC4)cc(NC(C)(C)CO)c21 [Compound 411]
Cn1ccc2cc(NC(=O)c3ccc(S(=O)(=O)NCCO)cc3N3CCC4(CC3)CC4)cc(N3CCOCC3)c21 [Compound 412]
C[C@@H](CO)NS(=O)(=O)c1ccc(C(=O)Nc2cc(N3CCC(F)(F)CC3)c3c(ccn3C)c2)c(N2CCC3(CC2)CC3)c1 [Compound 413]
C[C@H](CO)NS(=O)(=O)c1ccc(C(=O)Nc2cc(N3CCC(F)(F)CC3)c3c(ccn3C)c2)c(N2CCC3(CC2)CC3)c1 [Compound 414]
C[C@@H]1CN(c2cc(NC(=O)c3ccc(S(=O)(=O)N[C@@H](C)CO)cc3N3CCC4(CC3)CC4)cc3ccn(C)c23)CCO1 [Compound 415]
C[C@H](CO)NS(=O)(=O)c1ccc(C(=O)Nc2cc(N3CCO[C@H](C)C3)c3c(ccn3C)c2)c(N2CCC3(CC2)CC3)c1 [Compound 416]
Cn1ccc2cc(C(=O)Nc3ccc(NS(=O)(=O)CCO)cc3N3CCC4(CC3)CC4)cc(N3CCC(F)(F)CC3)c21 [Compound 417]
C[C@@H]1CN(c2cc(C(=O)Nc3ccc(NS(=O)(=O)CCO)cc3N3CCC4(CC3)CC4)cc3ccn(C)c23)CCO1 [Compound 418]
C[C@H]1CN(c2cc(C(=O)Nc3ccc(NS(=O)(=O)CCO)cc3N3CCC4(CC3)CC4)cc3ccn(C)c23)CCO1 [Compound 419]
Cn1ccc2cc(C(=O)Nc3ccc(NS(=O)(=O)CCO)cc3N3CCC4(CC3)CC4)cc(N3CC(F)(F)C3)c21 [Compound 420]
Cn1ccc2cc(C(=O)Nc3ccc(NS(=O)(=O)CCO)cc3N3CCC4(CC3)CC4)cc(OCCC(F)(F)F)c21 [Compound 421]
Cn1ccc2cc(C(=O)Nc3ccc(NS(=O)(=O)CCO)cc3N3CCC4(CC3)CC4)cc(N3CCC4(CC4)C3)c21 [Compound 422]
Cn1ccc2cc(C(=O)Nc3ccc(NS(=O)(=O)CCO)cc3N3CCC4(CC3)CC4)cc(OC3CCC3)c21 [Compound 423]
Cn1ccc2cc(C(=O)Nc3ccc(NS(=O)(=O)CCO)cc3N3CCC4(CC3)CC4)cc(N3CCC(C)(F)C3)c21 (centres unmarked) [Compound 424]
Cn1ccc2cc(C(=O)Nc3ccc(NS(=O)(=O)CCO)cc3N3CCC4(CC3)CC4)cc(N3CCC(F)CC3)c21 [Compound 425]
Cn1ccc2cc(C(=O)Nc3ccc(NS(=O)(=O)CCO)cc3N3CCC4(CC3)CC4)cc(N3CC4CC4C3)c21 (centres unmarked) [Compound 426]
Cn1ccc2cc(C(=O)Nc3ccc(NS(=O)(=O)CCO)cc3N3CCC4(CC3)CC4)cc(NC(C)(C)CO)c21 [Compound 427]
Cn1ccc2cc(C(=O)Nc3ccc(NS(=O)(=O)CCO)cc3N3CCC4(CC3)CC4)cc(N3CCOCC3)c21 [Compound 428]
C[C@@H](CO)S(=O)(=O)Nc1ccc(NC(=O)c2cc(N3CCC(F)(F)CC3)c3c(ccn3C)c2)c(N2CCC3(CC2)CC3)c1 [Compound 429]
C[C@H](CO)S(=O)(=O)Nc1ccc(NC(=O)c2cc(N3CCC(F)(F)CC3)c3c(ccn3C)c2)c(N2CCC3(CC2)CC3)c1 [Compound 430]
C[C@@H]1CN(c2cc(C(=O)Nc3ccc(NS(=O)(=O)[C@@H](C)CO)cc3N3CCC4(CC3)CC4)cc3ccn(C)c23)CCO1 [Compound 431]
C[C@@H]1CN(c2cc(C(=O)Nc3ccc(NS(=O)(=O)[C@H](C)CO)cc3N3CCC4(CC3)CC4)cc3ccn(C)c23)CCO1 [Compound 432]
Cn1ccc2cc(C(=O)Nc3ccc(S(=O)(=O)NCCO)cc3N3CCC4(CC3)CC4)cc(N3CCC(F)(F)CC3)c21 [Compound 433]
C[C@@H]1CN(c2cc(C(=O)Nc3ccc(S(=O)(=O)NCCO)cc3N3CCC4(CC3)CC4)cc3ccn(C)c23)CCO1 [Compound 434]
C[C@H]1CN(c2cc(C(=O)Nc3ccc(S(=O)(=O)NCCO)cc3N3CCC4(CC3)CC4)cc3ccn(C)c23)CCO1 [Compound 435]
Cn1ccc2cc(C(=O)Nc3ccc(S(=O)(=O)NCCO)cc3N3CCC4(CC3)CC4)cc(N3CC(F)(F)C3)c21 [Compound 436]
Cn1ccc2cc(C(=O)Nc3ccc(S(=O)(=O)NCCO)cc3N3CCC4(CC3)CC4)cc(OCCC(F)(F)F)c21 [Compound 437]
Cn1ccc2cc(C(=O)Nc3ccc(S(=O)(=O)NCCO)cc3N3CCC4(CC3)CC4)cc(N3CCC4(CC4)C3)c21 [Compound 438]
Cn1ccc2cc(C(=O)Nc3ccc(S(=O)(=O)NCCO)cc3N3CCC4(CC3)CC4)cc(OC3CCC3)c21 [Compound 439]
Cn1ccc2cc(C(=O)Nc3ccc(S(=O)(=O)NCCO)cc3N3CCC4(CC3)CC4)cc(N3CCC(C)(F)C3)c21 (centres unmarked) [Compound 440]
Cn1ccc2cc(C(=O)Nc3ccc(S(=O)(=O)NCCO)cc3N3CCC4(CC3)CC4)cc(N3CCC(F)CC3)c21 [Compound 441]
Cn1ccc2cc(C(=O)Nc3ccc(S(=O)(=O)NCCO)cc3N3CCC4(CC3)CC4)cc(N3CC4CC4C3)c21 (centres unmarked) [Compound 442]
Cn1ccc2cc(C(=O)Nc3ccc(S(=O)(=O)NCCO)cc3N3CCC4(CC3)CC4)cc(NC(C)(C)CO)c21 [Compound 443]
Cn1ccc2cc(C(=O)Nc3ccc(S(=O)(=O)NCCO)cc3N3CCC4(CC3)CC4)cc(N3CCOCC3)c21 [Compound 444]
C[C@@H](CO)NS(=O)(=O)c1ccc(NC(=O)c2cc(N3CCC(F)(F)CC3)c3c(ccn3C)c2)c(N2CCC3(CC2)CC3)c1 [Compound 445]
C[C@H](CO)NS(=O)(=O)c1ccc(NC(=O)c2cc(N3CCC(F)(F)CC3)c3c(ccn3C)c2)c(N2CCC3(CC2)CC3)c1 [Compound 446]

Source: patent publication US20250197382A1, “KIF18A INHIBITOR” (WIGEN BIOMEDICINE TECHNOLOGY (SHANGHAI) CO., LTD., priority 2022, published 2025)
